The text below walks through data of ChEMBL document CHEMBL1152004, “Chloramphenicol: High dilution FT-IR evidence for an intramolecular hydrogen bond” (Bioorg Med Chem Lett, 1991).

In this experiment the target is Ribosome. The experiment in a line: Inhibition of protein biosynthesis at the level of the peptidyl transferase center of the 50 s ribosomal subunit. Type of experiment: subcellular.

In the case of `O=C(N[C@H](CO)[C@H](O)c1ccc([N+](=O)[O-])cc1)C(Cl)Cl` [CHLORAMPHENICOL], the Kd (in general, the equilibrium constant for the complex coming apart) was ~1 µM.
